According to patent US20150274777A1, “KETOAMIDE IMMUNOPROTEASOME INHIBITORS” (HOFFMANN-LA ROCHE INC., priority 2012, published 2015):

What was measured:
β5c = biological target: T1, β5c (Homo sapiens, UniProt P20618+P28074); experiment: Cell-Based Proteasome Activity/Selectivity Assay (Ramos cells), substrate (WLA)2Rh110; conditions: highest concentration tested 20 μM
T1 construct: protease activity associated with the proteasome complex in cultured cells; endogenous in cells; host or cells: Ramos cells
Source text: (§1) Cell-Based Proteasome Activity/Selectivity Assay
(§2) The Cell-Based Proteasome subunit activity/selectivity assay was a panel of 5 fluorogenic assays that independently measured the activity of β5c or β5i (chymotrypsin-like activity), β2c/2i (trypsin-like), and β1c or β1i (caspase-like) protease activity associated with the proteasome complex in cultured cells. Specifically, the following substrates were used for respective subunit activities: β1i: (PAL)2Rh110, β1c: (LLE)2 Rh110, β2c/2i: (KQL)2Rh110, β5c: (WLA)2Rh110, β5i: (ANW)2Rh110. The following procedure was followed:
(§3) Cell preparation: Plated 25 μl of Ramos cells (2×10^6/ml in DPBS) into half area plate (PerkinElmer Cat 6005569) to final 5×10^4 cells/well. Added 0.5 μl of 100×4-fold serial diluted test compounds or DMSO to each well. Highest concentration of compound tested was 20 μM, thus compound serial dilution started from […]. Incubated for 30 minutes at 37° C. Then equilibrated at room temperature for 15 minutes. Added 25 μl of 2× reaction mix consisting of 0.025% digitonin, 20 μM of each substrates and 0.5M sucrose in DPBS. Shaked for one minute @ 700 rpm. Incubated for 120 min at room temperature. Then read the plates with an Envision multilabel plate reader (PerkinElmer) with 500 nm excitation/519 nm emission.

β5i = biological target: T2, β5i (Homo sapiens, UniProt P20618+P28062); experiment: Cell-Based Proteasome Activity/Selectivity Assay (Ramos cells), substrate (ANW)2Rh110; conditions: highest concentration tested 20 μM, read-out: Ic50 ramos:ac-(anw)2-r110
T2 construct: protease activity associated with the proteasome complex in cultured cells; endogenous in cells; host or cells: Ramos cells
Source text: as §1, §2, §3

[1] = tested on: IP10 level in PBMCs stimulated with CpG Type A; experiment: PBMC IP-10 Assay; assay type: cell-based; conditions: CpG Type A 2.5 μM
Protocol: PBMCs were isolated from whole blood as follows: Blood was collected in a sterile environment in heparinized tubes. Blood was diluted with an equal volume PBS/2% FCS and 30 ml of this mixture was added to ACCUSPIN tubes containing 15 ml Histopaque-1077 already centrifuged at 800 g for 30 seconds and warmed up at room temperature. The tubes were then centrifuged at 800 g for 20 minutes at room temperature with no brake. The mononuclear band, just above the polyethylene frit, was removed by Pasteur pipet. These mononuclear cells were washed three times with sterile PBS, counted, and resuspended in RPMI 1640 supplemented with 10% heat inactivated fetal calf serum, 10 mM HEPES, 1 mM sodium pyruvate, penicillin (50 U/ml), streptomycin (50 μg/ml) and glutamine (2 mM) to approximately 1.5×10^6/ml. Approximately 2×10^5 cells/well were plated in 96 well tissue culture plates (BD Falcon 353072), and preincubated 60 mi/37° C. with a titration of compounds, in a final concentration of 1% DMSO. Cells were then stimulated with CpG Type A (Invivogen, Cat #tlrl-2216; ODN 2216) at a final concentration of 2.5 μM. Cells were incubated overnight, and supernatants were removed. PBMC viability of cells remaining in the well was measured with ATPlite luminescence assay (Perkin-Elmer) per the manufacturer's instructions. Luminescence was measured on the Perkin-Elmer Envision, using the luminescence filter. IP10 level was measured with CXCL10/IP10 AlphaLISA kit (Perkin-Elmer) per the manufacturer's instructions, except halving all volumes. Fluorescence was measured on the Envision Multilabel plate reader, using the AlphaScreen standard settings.

β2c/2i = experiment: Cell-Based Proteasome Activity/Selectivity Assay (Ramos cells), substrate (KQL)2Rh110; conditions: highest concentration tested 20 μM
Source text: as §1, §2, §3

β1i = biological target: T3, β1i (Homo sapiens, UniProt P28065+P40306); experiment: Cell-Based Proteasome Activity/Selectivity Assay (Ramos cells), substrate (PAL)2Rh110; conditions: highest concentration tested 20 μM
T3 construct: protease activity associated with the proteasome complex in cultured cells; endogenous in cells; host or cells: Ramos cells
Source text: as §1, §2, §3

β1c = biological target: T4, β1c (Homo sapiens, UniProt P28072+Q99436); experiment: Cell-Based Proteasome Activity/Selectivity Assay (Ramos cells), substrate (LLE)2 Rh110; conditions: highest concentration tested 20 μM
T4 construct: protease activity associated with the proteasome complex in cultured cells; endogenous in cells; host or cells: Ramos cells
Source text: as §1, §2, §3

| SMILES | IC50 (β5c) [nM] | IC50 (β5i) [nM] | EC50 [1] [nM] | IC50 (β2c/2i) [nM] | IC50 (β1i) [nM] | IC50 (β1c) [nM] |
| --- | --- | --- | --- | --- | --- | --- |
| C[C@H](NC(=O)OCc1ccccc1)C(=O)N[C@@H](Cc1c[nH]c2ccccc12)C(=O)N[C@@H](Cc1ccccc1)C(=O)C(=O)NCc1ccccc1 [Example 16, {(S)-1-[(S)-1-((S)-1-Benzyl-2-benzylcarbamoyl-2-oxo-ethylcarbamoyl)-2-(1H-indol-3-yl)-ethylcarbamoyl]-ethyl}-carbamic acid benzyl ester] | 926 | 17 | 1330 | > 20000 | 274 | 18300 |
| COc1ccc(C[C@H](NC(=O)[C@H](C)NC(=O)OCc2ccccc2)C(=O)N[C@@H](Cc2ccccc2)C(=O)C(=O)NCc2ccccc2)cc1 [Example 17, {(S)-1-[(S)-1-((S)-1-Benzyl-2-benzylcarbamoyl-2-oxo-ethylcarbamoyl)-2-(4-methoxy-phenyl)-ethylcarbamoyl]-ethyl}-carbamic acid benzyl ester] | 988 | 7 | 939 | > 20000 | 417 | > 20000 |
| C[C@H](NC(=O)C1Cc2ccccc2C1)C(=O)N[C@@H](Cc1c[nH]c2ccccc12)C(=O)N[C@@H](Cc1ccccc1)C(=O)C(=O)NCc1ccccc1 [Example 18, Indan-2-carboxylic acid {(S)-1-[(S)-1-((S)-1-benzyl-2-benzylcarbamoyl-2-oxo-ethylcarbamoyl)-2-(1H-indol-3-yl)-ethylcarbamoyl]-ethyl}-amide] | 173 | 5 | 672 | 7020 | 441 | 3280 |
| COc1ccc(C[C@H](NC(=O)[C@H](C)NC(=O)C2Cc3ccccc3C2)C(=O)N[C@@H](Cc2ccccc2)C(=O)C(=O)NCc2ccccc2)cc1 [Example 19, Indan-2-carboxylic acid {(S)-1-[(S)-1-((S)-1-benzyl-2-benzylcarbamoyl-2-oxo-ethylcarbamoyl)-2-(4-methoxy-phenyl)-ethylcarbamoyl]-ethyl}-amide] | 55 | 3 | 695 | > 20000 | 234 | > 20000 |
| CC1=C(C(=O)N[C@@H](C)C(=O)N[C@@H](CCS(C)(=O)=O)C(=O)N[C@@H](Cc2ccccc2)C(=O)C(=O)NCc2ccccc2)Cc2ccccc21 [Example 20, 3-Methyl-1H-indene-2-carboxylic acid {(S)-1-[(S)-1-((S)-1-benzyl-2-benzylcarbamoyl-2-oxo-ethylcarbamoyl)-3-methanesulfonyl-propylcarbamoyl]-ethyl}-amide] | 157 | 15 | 1640 | > 20000 | 738 | > 20000 |
| COc1ccc(C[C@H](NC(=O)[C@H](C)NC(=O)c2cc(C)on2)C(=O)N[C@@H](Cc2ccccc2)C(=O)C(=O)NCc2ccccc2)cc1 [Example 21, 5-Methyl-isoxazole-3-carboxylic acid {(S)-1-[(S)-1-((S)-1-benzyl-2-benzylcarbamoyl-2-oxo-ethylcarbamoyl)-2-(4-methoxy-phenyl)-ethylcarbamoyl]-ethyl}-amide] | 765 | 7 | 3490 | > 20000 | 210 | > 20000 |
| C[C@H](NC(=O)CN1CCOCC1)C(=O)N[C@@H](Cc1c[nH]c2ccccc12)C(=O)N[C@@H](Cc1ccccc1)C(=O)C(=O)NCc1ccccc1 [Example 22, (S)—N-Benzyl-3-{(S)-3-(1H-indol-3-yl)-2-[(S)-2-(2-morpholin-4-yl-acetylamino)-propionylamino]-propionylamino}-2-oxo-4-phenyl-butyramide] | 3300 | 124 | 5780 | > 20000 | 1100 | > 20000 |
| COC[C@H](NC(=O)C1Cc2ccccc2C1)C(=O)N[C@@H](Cc1ccc(OC)cc1)C(=O)N[C@@H](Cc1ccccc1)C(=O)C(=O)NCc1ccccc1 [Example 23, Indan-2-carboxylic acid {(S)-1-[(S)-1-((S)-1-benzyl-2-benzylcarbamoyl-2-oxo-ethylcarbamoyl)-2-(4-methoxy-phenyl)-ethylcarbamoyl]-2-methoxy-ethyl}-amide] | 5 | 1 | 356 | > 20000 | 97 | 7320 |
| CC(C)C[C@H](NC(=O)[C@H](C)NC(=O)C1Cc2ccccc2C1)C(=O)N[C@@H](Cc1ccccc1)C(=O)C(=O)NCc1ccccc1 [Example 24, Indan-2-carboxylic acid {(S)-1-[(S)-1-((S)-1-benzyl-2-benzylcarbamoyl-2-oxo-ethylcarbamoyl)-3-methyl-butylcarbamoyl]-ethyl}-amide] | 272 | 5 | 433 | 5710 | 441 | 7050 |
| COc1ccc(C[C@H](NC(=O)[C@H](C)NC(=O)C2=C(C)c3ccccc3C2)C(=O)N[C@@H](Cc2ccccc2)C(=O)C(=O)NCc2ccccc2)cc1 [Example 25, 3-Methyl-1H-indene-2-carboxylic acid {(S)-1-[(S)-1-((S)-1-benzyl-2-benzylcarbamoyl-2-oxo-ethylcarbamoyl)-2-(4-methoxy-phenyl)-ethylcarbamoyl]-ethyl}-amide] | 846 | 9 | 1080 | > 20000 | > 20000 | > 20000 |
| COc1ccc(C[C@H](NC(=O)[C@@H](NC(=O)C2Cc3ccccc3C2)C2CC2)C(=O)N[C@@H](Cc2ccccc2)C(=O)C(=O)NCc2ccccc2)cc1 [Example 26, Indan-2-carboxylic acid {(S)-[(S)-1-((S)-1-benzyl-2-benzylcarbamoyl-2-oxo-ethylcarbamoyl)-2-(4-methoxy-phenyl)-ethylcarbamoyl]-cyclopropyl-methyl}-amide] | 15 | 4 | 203 | 380 | 181 | 2380 |
| COc1ccc(C[C@H](NC(=O)C2(NC(=O)C3Cc4ccccc4C3)CC2)C(=O)N[C@@H](Cc2ccccc2)C(=O)C(=O)NCc2ccccc2)cc1 [Example 27, Indan-2-carboxylic acid {1-[(S)-1-((S)-1-benzyl-2-benzylcarbamoyl-2-oxo-ethylcarbamoyl)-2-(4-methoxy-phenyl)-ethylcarbamoyl]-cyclopropyl}-amide] | 4520 | 40 | 4870 | > 20000 | 5060 | 12900 |
| COc1ccc(C[C@H](NC(=O)C2(NC(=O)OCc3ccccc3)CC2)C(=O)N[C@@H](Cc2ccccc2)C(=O)C(=O)NCc2ccccc2)cc1 [Example 28, {1-[(S)-1-((S)-1-Benzyl-2-benzylcarbamoyl-2-oxo-ethylcarbamoyl)-2-(4-methoxy-phenyl)-ethylcarbamoyl]-cyclopropyl}-carbamic acid benzyl ester] | 5110 | 294 | 2790 | > 20000 | 4740 | > 20000 |
| COc1ccc(C[C@H](NC(=O)[C@H](C)NC(=O)c2cnccn2)C(=O)N[C@@H](Cc2ccccc2)C(=O)C(=O)NCc2ccccc2)cc1 [Example 29, Pyrazine-2-carboxylic acid {(S)-1-[(S)-1-((S)-1-benzyl-2-benzylcarbamoyl-2-oxo-ethylcarbamoyl)-2-(4-methoxy-phenyl)-ethylcarbamoyl]-ethyl}-amide] | 2060 | 275 | 4170 | 11900 | 218 | 5620 |
